Data from the NIST ThermoML archive (doi:10.1016/j.jct.2018.11.010).

Experiment: xn = mol fraction of the nth substance listed
Conditions: 333.15 K, Liquid, Vibrating tube method

CCCCCCCO [heptan-1-ol] + CCCCOCCCC
mass density [kg/m3]
Conditions	x2 = 0	x2 = 0.1488	x2 = 0.3201	x2 = 0.4944	x2 = 0.7014	x2 = 0.8534
20000 kPa	807.7	798.9	789.1	779.6	768.3	760.5
25000 kPa	810.8	802.3	792.6	783.4	772.2	764.7
30000 kPa	813.9	805.5	796	787	776.1	768.6
35000 kPa	816.9	808.7	799.3	790.4	779.7	772.4
40000 kPa	819.8	811.7	802.5	793.7	783.2	776.1
45000 kPa	822.4	814.5	805.5	796.9	786.5	779.5
50000 kPa	825.2	817.4	808.5	800	789.8	782.9
55000 kPa	827.8	820.1	811.3	802.9	792.9	786
60000 kPa	830.3	822.7	814.1	805.8	795.9	789.2
65000 kPa	832.9	825.3	816.8	808.6	798.9	792.2
70000 kPa	835.3	827.9	819.5	811.4	801.7	795.1
80000 kPa	839.9	832.7	824.4	816.6	807.1	800.7
90000 kPa	844.5	837.4	829.3	821.6	812.3	806
100000 kPa	848.7	841.7	833.8	826.3	817.2	811.1
110000 kPa	852.8	845.9	838.2	830.8	821.9	815.9
120000 kPa	856.8	850	842.3	835.1	826.4	820.5
130000 kPa	860.5	853.9	846.4	839.3	830.7	824.8
140000 kPa	864.3	–	–	–	–	–
